Source: patent US20150246025A1, “2-PHENYL-5-HETEROCYCLYL-TETRAHYDRO-2H-PYRAN-3-AMINE COMPOUNDS FOR USE IN THE TREATMENT OF DIABETES AND ITS ASSOCIATED DISORDERS” (CADILA HEALTHCARE LIMITED, priority 2012, published 2015)

Experiments:
DPP-IV enzyme = molecular target: T1, DPP-IV enzyme (Homo sapiens, UniProt P27487); test: In vitro DPP-IV inhibitory activity using enzymatic (fluorescence-based) assay; format: biochemical; settings: soluble human DPP-IV, H-Gly-Pro-AMC 200 μM, pH 7.8, 25° C., 30 min; read-out: % In-vitro DPPIV Inhibition IC50
T1 construct: soluble human proteins (DPP-IV enzyme) produced in a baculovirus expression system; made in house; host or cells: baculovirus expression system (Life Technologies)
T1 sequence (P27487 39-766 limits assumed): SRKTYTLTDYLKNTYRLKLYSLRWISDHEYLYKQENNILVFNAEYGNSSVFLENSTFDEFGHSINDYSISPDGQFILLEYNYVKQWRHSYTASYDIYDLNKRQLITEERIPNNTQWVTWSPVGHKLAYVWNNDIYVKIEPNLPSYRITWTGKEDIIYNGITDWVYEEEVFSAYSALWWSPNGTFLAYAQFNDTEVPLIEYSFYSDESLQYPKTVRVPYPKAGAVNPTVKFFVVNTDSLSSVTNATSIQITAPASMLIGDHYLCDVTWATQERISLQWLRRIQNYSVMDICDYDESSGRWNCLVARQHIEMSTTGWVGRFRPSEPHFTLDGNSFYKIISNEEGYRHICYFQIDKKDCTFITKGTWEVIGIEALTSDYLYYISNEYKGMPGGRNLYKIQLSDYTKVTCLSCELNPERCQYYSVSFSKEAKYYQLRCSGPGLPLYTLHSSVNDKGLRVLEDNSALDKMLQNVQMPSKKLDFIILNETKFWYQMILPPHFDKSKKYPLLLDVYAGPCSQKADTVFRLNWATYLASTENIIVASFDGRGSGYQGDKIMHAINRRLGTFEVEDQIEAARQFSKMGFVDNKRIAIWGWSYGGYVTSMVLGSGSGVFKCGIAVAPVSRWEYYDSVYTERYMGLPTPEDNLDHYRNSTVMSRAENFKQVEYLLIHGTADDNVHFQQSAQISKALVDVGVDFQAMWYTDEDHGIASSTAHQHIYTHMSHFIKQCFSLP
Description: In Vitro DPP-IV Inhibitory Activity Using Enzymatic Assay:
In vitro enzyme (DPP-IV) inhibitory activity was determined using fluorescence-based assay (Anal. Biochem., 200, 352, 1992). The Gly-Pro-AMC was used as a substrate (which is cleaved by the enzymes to release the fluorescent AMC) and soluble human proteins (DPP-IV enzyme) produced in a baculovirus expression system (Life Technologies) was used as the enzyme source. The H-Gly-Pro-AMC (200 μM) was incubated with DPP-IV enzyme in the presence of various concentrations (30 & 100 nM) of test compounds. Reaction was carried out at pH 7.8 (HEPES buffer 25 mM containing 1.0% BSA, 140 mM NaCl, 16 mM MgCl2, 2.8% DMSO) in a total volume of 100 μl at 25° C. for 30 min., in the dark. Reaction was terminated with acetic acid (25 μl of 25% solution). Activity (fluorescence) was measured using Spectra Max fluorometer (Molecular Devices, Sunnyvale Calif.) by exciting at 380 nm and emission at 460 nm.

C57BL/6J mice = test: In vivo antihyperglycaemic/antidiabetic activity (OGTT), acute single dose 120-min time-course; settings: Mus musculus, 2 h; male C57BL/6J mice, acute single dose 0,3 mg/kg po, 120-min time-course, n = 6, Mean ± SEM; read-out: In vivo OGTT C57; % Glucose change
Description: Acute single dose 120-min time-course experiments were carried out in male C57BL/6J mice, age 8-12 weeks, bred in-house. Animals were housed in groups of 6 animals per cage, for a week, in order to habituate them to vivarium conditions (25±4° C., 60-65% relative humidity, 12: 12 h light: dark cycle, with lights on at 7.30 am). All the animal experiments were carried out according to the internationally valid guidelines following approval by the ‘Zydus Research Center animal ethical committee’.
The in-vivo glucose lowering properties of the test compounds were evaluated in C57BL/6J (mild hyperglycemic) animal models as described below. Two days prior to the study, the animals were randomized and divided into groups (n=6), based upon their fed glucose levels. On the day of experiment, food was withdrawn from all the cages, water was given ad-libitum and were kept for overnight fasting. Vehicle (normal saline)/test compounds were administered orally, on a body weight basis. Soon after the 0 min. blood collection from each animal, the subsequent blood collections were done at 30, 60 and 120 or upto 240 min., via retro-orbital route, under light ether anesthesia (Diabetes Obesity Metabolism, 7, 307, 2005; Diabetes, 52, 751, 2003).
Blood samples were centrifuged and the separated serum was immediately subjected for the glucose estimation. Serum for insulin estimation was stored at −70° C. until used for the insulin estimation. The glucose estimation was carried out with DPEC-GOD/POD method (Ranbaxy Fine Chemicals Limited, Diagnostic division, India), using Spectramax-190, in 96-microwell plate reader (Molecular devices Corporation, Sunnyvale, Calif.). […] The AUC and BCAUC obtained from graphs were analyzed for one way ANOVA, followed by Dunnett's post test, using Graph Pad prism software.

Structure (SMILES)	IC50 (DPP-IV enzyme) [nM]	change in vivo at 0.3 mg/kg (C57BL/6J mice) [%]
CC(C)c1ccc(S(=O)(=O)N2CC3=C(CN([C@H]4CO[C@H](c5cc(F)ccc5F)[C@@H](N)C4)C3)C2)cc1 [Compound 39, (2R,3S,5R)-2-(2,5-difluorophenyl)-5-(5-((4-isopropylphenyl)sulfonyl)-5,6-dihydropyrrolo[3,4-c]pyrrol-2(1H,3H,4H)-yl)tetrahydro-2H-pyran-3-amine]	< 10	-25.1 ± 3.6
CC(C)C(=O)N1CC2=C(C1)CN([C@H]1CO[C@H](c3cc(F)ccc3F)[C@@H](N)C1)C2 [Compound 24, 1-(5-((3R,5S,6R)-5-amino-6-(2,5-difluorophenyl)tetrahydro-2H-pyran-3-yl)-5,6-dihydropyrrolo[3,4-c]pyrrol-2(1H,3H,4H)-yl)-2-methylpropan-1-one]	< 30	-18.9 ± 5.7
CS(=O)(=O)N1CCC2CN([C@H]3CO[C@H](c4cc(F)ccc4F)[C@@H](N)C3)CC21 (stereo partly drawn) [Compound 15, (2R,3S,5R)-2-(2,5-difluorophenyl)-5-(1-(methylsulfonyl)hexahydropyrrolo[3,4-b]pyrrol-5(1H)-yl)tetrahydro-2H-pyran-3-amine]	< 100	-42 ± 1.8
CC(C)CS(=O)(=O)N1CC2=C(CN([C@H]3CO[C@H](c4cc(F)ccc4F)[C@@H](N)C3)C2)C1 [Compound 42, (2R,3S,5R)-2-(2,5-difluorophenyl)-5-(5-(isobutylsulfonyl)-5,6-dihydropyrrolo[3,4-c]pyrrol-2(1H,3H,4H)-yl)tetrahydro-2H-pyran-3-amine]	< 30	-25.1 ± 2.8
CS(=O)(=O)N1CCC2(CCN([C@H]3CO[C@H](c4cc(F)ccc4F)[C@@H](N)C3)C2)CC1 [Compound 14, (2R,3S,5R)-2-(2,5-difluorophenyl)-5-(8-(methylsulfonyl)-2,8-diazaspiro[4.5]decan-2-yl)tetrahydro-2H-pyran-3-amine]	< 100	-14.2 ± 3.4
Cc1ccc(S(=O)(=O)N=S(C)(=O)N2CC3=C(CN([C@H]4CO[C@H](c5cc(F)ccc5F)[C@@H](N)C4)C3)C2)cc1 (stereo partly drawn) [Compound 49, (2R,3S,5R)-2-(2,5-difluorophenyl)-5-(5-(N-(4-methylbenzenesulfonyl)-S-methylsulfonimidoyl)-5,6-dihydropyrrolo[3,4-c]pyrrol-2(1H,3H,4H)-yl)tetrahydro-2H-pyran-3-amine]	< 10	
N[C@H]1C[C@@H](N2CC3=C(CN(C(=O)C4CCCCC4)C3)C2)CO[C@@H]1c1cc(F)ccc1F [Compound 26, (5-((3R,5S,6R)-5-amino-6-(2,5-difluorophenyl)tetrahydro-2H-pyran-3-yl)-5,6-dihydropyrrolo[3,4-c]pyrrol-2(1H,3H,4H)-yl)(cyclohexyl)methanone]	< 30	-20.1 ± 1.4
N[C@H]1C[C@@H](N2CC3C(=O)N(C4CC4)C(=O)C3C2)CO[C@@H]1c1cc(F)ccc1F (stereo partly drawn) [Compound 10, 5-((3R,5S,6R)-5-amino-6-(2,5-difluorophenyl)tetrahydro-2H-pyran-3-yl)-2-cyclopropyltetrahydropyrrolo[3,4-c]pyrrole-1,3(2H,3aH)-dione]	< 100	-12.5 ± 1.3
N[C@H]1C[C@@H](N2CC3=C(CNC3)C2)CO[C@@H]1c1cc(F)ccc1F [Compound 44, (2R,3S,5R)-2-(2,5-difluorophenyl)-5-(5,6-dihydropyrrolo[3,4-c]pyrrol-2(1H,3H,4H)-yl)tetrahydro-2H-pyran-3-amine]	< 30	-12.5 ± 1.5
CN(C)S(=O)(=O)N1CC2CN([C@H]3CO[C@H](c4cc(F)ccc4F)[C@@H](N)C3)CC2C1 (stereo partly drawn) [Compound 7, 5-((3R,5S,6R)-5-amino-6-(2,5-difluorophenyl)tetrahydro-2H-pyran-3-yl)-N,N-dimethylhexahydropyrrolo[3,4-c]pyrrole-2(1H)-sulfonamide]	< 10	-7.9 ± 1.2
N[C@H]1C[C@@H](N2CC3=C(CN(C(=O)C4CC4)C3)C2)CO[C@@H]1c1cc(F)ccc1F [Compound 22, (2R,3S,5R)-5-(5-(cyclopropanecarbonyl)-5,6-dihydropyrrolo[3,4-c]pyrrol-2(1H,3H,4H)-yl)-2-(2,5-difluorophenyl)tetrahydro-2H-pyran-3-amine]	< 30	-25.1 ± 2
N[C@H]1C[C@@H](N2CC3=C(CN(C(=O)c4ccccc4)C3)C2)CO[C@@H]1c1cc(F)ccc1F [Compound 23, (5-((3R,5S,6R)-5-amino-6-(2,5-difluorophenyl)tetrahydro-2H-pyran-3-yl)-5,6-dihydropyrrolo[3,4-c]pyrrol-2(1H,3H,4H)-yl)(phenyl)methanone]	< 30	-22 ± 1.2
CN(C)S(=O)(=O)N1CC2=C(CN([C@H]3CO[C@H](c4cc(F)ccc4F)[C@@H](N)C3)C2)C1 [Compound 9, 5-((3R,5S,6R)-5-amino-6-(2,5-difluorophenyl)tetrahydro-2H-pyran-3-yl)-N,N-dimethyl-3,4,5,6-tetrahydropyrrolo[3,4-c]pyrrole-2(1H)-sulfonamide]	< 10	-34.7 ± 4.4
CS(=O)(=O)N1C[C@H]2CN([C@H]3CO[C@H](c4cc(F)ccc4F)[C@@H](N)C3)[C@H]2C1 [Compound 20, (2R,3S,5R)-2-(2,5-difluorophenyl)-5-((1R,5R)-3-(methylsulfonyl)-3,6-diazabicyclo[3.2.0]heptan-6-yl)tetrahydro-2H-pyran-3-amine]	< 100	-8.4 ± 1.7
N[C@H]1C[C@@H](N2CC3=C(C2)CN(S(=O)(=O)c2ccccc2)C3)CO[C@@H]1c1cc(F)ccc1F [Compound 32, (2R,3S,5R)-2-(2,5-difluorophenyl)-5-(5-(phenylsulfonyl)-5,6-dihydropyrrolo[3,4-c]pyrrol-2(1H,3H,4H)-yl)tetrahydro-2H-pyran-3-amine]	< 10	-25.3 ± 3.9
CS(=O)(=O)N1CC2CCN([C@H]3CO[C@H](c4cc(F)ccc4F)[C@@H](N)C3)CC2C1 (stereo partly drawn) [Compound 13, (2R,3S,5R)-2-(2,5-difluorophenyl)-5-(2-(methylsulfonyl)hexahydro-1H-pyrrolo[3,4-c]pyridin-5(6H)-yl)tetrahydro-2H-pyran-3-amine]	< 10	-26.4 ± 1.6
COC(=O)N1CC2=C(C1)CN([C@H]1CO[C@H](c3cc(F)ccc3F)[C@@H](N)C1)C2 [Compound 27, (2R,3S,5R)-2-(2,5-difluorophenyl)-5-(5-(methoxycarbonyl)-5,6-dihydropyrrolo-[3,4-c]pyrrol-2(1H,3H,4H)-yl)tetrahydro-2H-pyran-3-amine]	< 10	-13.7 ± 1.2
CS(=O)(=O)N1CCC2(CCN([C@H]3CO[C@H](c4cc(F)ccc4F)[C@@H](N)C3)C2)C1 (stereo partly drawn) [Compound 2, (2R,3S,5R)-2-(2,5-difluorophenyl)-5-(7-(methylsulfonyl)-2,7-diazaspiro[4.4]-nonan-2-yl)tetrahydro-2H-pyran-3-amine]	< 10	-25.7 ± 1.8
CS(=O)(=O)N1CCC2CN([C@H]3CO[C@H](c4cc(F)ccc4F)[C@@H](N)C3)CC2C1 (stereo partly drawn) [Compound 12, (2R,3S,5R)-2-(2,5-difluorophenyl)-5-(5-(methylsulfonyl)hexahydro-1H-pyrrolo[3,4-c]pyridin-2(3H)-yl)tetrahydro-2H-pyran-3-amine]	< 100	-9.8 ± 1.5
N[C@H]1C[C@@H](N2CC3=C(CN(C(=O)Nc4ccccc4)C3)C2)CO[C@@H]1c1cc(F)ccc1F [Compound 45, 5-((3R,5S,6R)-5-amino-6-(2,5-difluorophenyl)tetrahydro-2H-pyran-3-yl)-N-phenyl-3,4,5,6-tetrahydropyrrolo[3,4-c]pyrrole-2(1H)-carboxamide]	< 10	-34.9 ± 4.4
CS(=O)(=O)N1CC2CCN([C@H]3CO[C@H](c4cc(F)ccc4F)[C@@H](N)C3)C2C1 (stereo partly drawn) [Compound 16, (2R,3S,5R)-2-(2,5-difluorophenyl)-5-(5-(methylsulfonyl)hexahydropyrrolo[3,4-b]pyrrol-1(2H)-yl)tetrahydro-2H-pyran-3-amine]	< 100	-29.4 ± 6.8
